Test results: ChEMBL document CHEMBL1135753, “Characterization of orally active nonpeptide vasopressin V(2) receptor agonist. Synthesis and biological evaluation of both the (5R)- and (5S)-enantioisomers of 2-[1-(2-Chloro-4-pyrrolidin-1-yl-benzoyl)-2,3,4,5-tetrahydro-1H-1-benzazepin- 5-yl]-N-isopropylacetamide” (J Med Chem, 2002)

Tests used:
Vasopressin V2 receptor [1] = target: Vasopressin V2 receptor (Rattus norvegicus, UniProt Q00788); experiment: Binding affinity against Vasopressin V2 receptor was determined in Brattleboro rats
Chain of Vasopressin V2 receptor (Rattus norvegicus, UniProt Q00788) (Q00788 whole entry): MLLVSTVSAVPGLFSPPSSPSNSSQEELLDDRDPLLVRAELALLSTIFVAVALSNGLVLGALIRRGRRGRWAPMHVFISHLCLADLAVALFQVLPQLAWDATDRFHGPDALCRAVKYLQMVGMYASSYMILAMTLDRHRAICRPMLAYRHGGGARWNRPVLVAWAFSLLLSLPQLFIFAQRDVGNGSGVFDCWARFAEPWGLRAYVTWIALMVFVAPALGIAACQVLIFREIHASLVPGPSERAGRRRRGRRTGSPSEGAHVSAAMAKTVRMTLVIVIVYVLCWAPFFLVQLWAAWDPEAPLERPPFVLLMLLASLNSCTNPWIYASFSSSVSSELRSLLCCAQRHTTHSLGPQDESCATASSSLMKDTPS

Vasopressin V2 receptor [2] = target: T1, Vasopressin V2 receptor (Homo sapiens, UniProt P30518); experiment: Binding affinity against human Vasopressin V2 receptor expressed in HeLa cells was determined; assay type: cell-based
T1 sequence (P30518 whole entry): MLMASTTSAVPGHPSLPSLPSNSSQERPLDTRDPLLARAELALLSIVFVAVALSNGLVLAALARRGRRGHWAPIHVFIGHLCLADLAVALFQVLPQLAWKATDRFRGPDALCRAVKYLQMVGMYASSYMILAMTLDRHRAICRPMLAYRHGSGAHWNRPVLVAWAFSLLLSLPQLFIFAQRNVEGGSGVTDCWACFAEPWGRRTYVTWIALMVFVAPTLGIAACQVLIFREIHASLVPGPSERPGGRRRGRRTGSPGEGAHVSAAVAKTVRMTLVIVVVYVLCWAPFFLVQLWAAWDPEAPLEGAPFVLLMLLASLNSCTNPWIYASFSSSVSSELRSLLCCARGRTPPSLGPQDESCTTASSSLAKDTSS

Vasopressin V2 receptor [3] = target: T1, Vasopressin V2 receptor; experiment: Percentage of maximal cAMP accumulation at a concentration of 10e-4 M was done in HeLa cells expressing the human Vasopressin V2 receptor; assay type: functional, cell-based

| SMILES | IC50 (Vasopressin V2 receptor [1]) [nM] | IC50 (Vasopressin V2 receptor [2]) [nM] | Accumulation (Vasopressin V2 receptor [3]) [%] |
| --- | --- | --- | --- |
| CC(C)NC(=O)C[C@H]1CCCN(C(=O)c2ccc(N3CCCC3)cc2Cl)c2ccccc21 | 230 | 330 |  |
| CC(C)NC(=O)C[C@@H]1CCCN(C(=O)c2ccc(N3CCCC3)cc2Cl)c2ccccc21 | 390 | 980 | 22 |
